Assay results reported in PMC8766924 (Angewandte Chemie (International ed. in English), 2021).

What was measured:
[1] = system: Y5R; assay: Calcium flux assay of NPY analogs; assay type: cell-based; details: Figure 3B-C, at least two independent experiments in triplicates
[2] = system: Y5R; details: still binds Y5R but not other Y receptors; cited from earlier work
[3] = molecular target: T1, A^4.67-Y5R (Homo sapiens, UniProt Q15761, V181A); assay type: cell-based; details: Figure 6C; transiently transfected COS-7
T1 sequence (Q15761 1-445 V181A): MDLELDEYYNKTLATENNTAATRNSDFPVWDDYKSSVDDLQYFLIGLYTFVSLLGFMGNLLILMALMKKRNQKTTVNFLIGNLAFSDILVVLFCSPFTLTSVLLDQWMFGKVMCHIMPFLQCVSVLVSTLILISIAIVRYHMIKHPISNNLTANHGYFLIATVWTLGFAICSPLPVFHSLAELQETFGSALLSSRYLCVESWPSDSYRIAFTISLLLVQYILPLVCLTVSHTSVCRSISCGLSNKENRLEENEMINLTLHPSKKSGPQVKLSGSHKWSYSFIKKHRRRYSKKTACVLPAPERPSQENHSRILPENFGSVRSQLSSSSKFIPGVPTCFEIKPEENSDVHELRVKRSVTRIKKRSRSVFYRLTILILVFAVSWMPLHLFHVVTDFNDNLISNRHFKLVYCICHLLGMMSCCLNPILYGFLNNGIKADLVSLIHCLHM

Substance	Potency loss at wt Y5R compared to NPY [1]	also measured
W^36-NPY: NPY with Y^36 substituted by Trp	2 fold	–
[Y^36A]-NPY: NPY with Y^36 substituted by Ala	43 fold	–
T32P-NPY: NPY with Thr32 substituted to Pro	–	Receptor selectivity [2]: selective Y5R agonist
A^28-NPY: NPY analog carrying Ala at position 28	–	Potency at A^4.67-Y5R compared to wt NPY [3]: lower potency
